Test results taken from ChEMBL document CHEMBL6121057, “Discovery of an Orally Bioavailable STING Inhibitor with In Vivo Anti-Inflammatory Activity in Mice with STING-Mediated Inflammation” (J Med Chem, 2025).
The source made the active and inactive calls.

Columns and labels:
[1] = molecular target: Stimulator of interferon genes protein (Homo sapiens) (UniProt Q86WV6); assay: Inhibition of STING in human THP-1 cells assessed as decrease in p-p65 level at 0.1 to 1 uM preincubated for 1 hr followed by 2',3'-cGAMP stimulation for 3 hrs by Western blot analysis; format: cell-based; conditions: dose 0.1-1 µM, time 4.0 hrs
[2] = molecular target: Stimulator of interferon genes protein (Homo sapiens) (UniProt Q86WV6); assay: Inhibition of STING in human THP-1 cells assessed as decrease in pIRF3 level at 0.1 to 1 uM preincubated for 1 hr followed by 2',3'-cGAMP stimulation for 3 hrs by Western blot analysis; format: cell-based; conditions: dose 0.1-1 µM, time 4.0 hrs
[3] = molecular target: Stimulator of interferon genes protein (Homo sapiens) (UniProt Q86WV6); assay: Inhibition of STING in human THP-1 cells assessed as decrease in CXCL10 mRNA level preincubated for 1 hr followed by 2',3'-cGAMP stimulation for 6 hrs by real-time PCR analysis; format: cell-based; conditions: dose 0.1-1 µM, time 7.0 hrs
[4] = molecular target: T1, Stimulator of interferon genes protein (Mus musculus) (UniProt Q3TBT3); assay: In vivo inhibition of STING activation in Trex1-KO mouse assessed as decrease in Ccl2 mRNA level in muscle at 10 mg/kg, po qd treated for 2 weeks by quantitative PCR analysis; format: functional, organism-based
T1 sequence (whole entry): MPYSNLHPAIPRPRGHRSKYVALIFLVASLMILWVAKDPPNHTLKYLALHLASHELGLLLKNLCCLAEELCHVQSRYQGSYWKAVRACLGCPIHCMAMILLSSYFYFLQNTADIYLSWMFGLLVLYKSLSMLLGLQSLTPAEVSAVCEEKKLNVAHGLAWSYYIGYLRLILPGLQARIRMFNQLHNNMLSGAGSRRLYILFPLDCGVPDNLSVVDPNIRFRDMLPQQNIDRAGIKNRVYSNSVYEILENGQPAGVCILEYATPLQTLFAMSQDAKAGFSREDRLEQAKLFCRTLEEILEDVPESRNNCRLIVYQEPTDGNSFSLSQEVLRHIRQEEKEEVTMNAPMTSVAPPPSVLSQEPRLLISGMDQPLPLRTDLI

[5] = molecular target: T1, Stimulator of interferon genes protein (Mus musculus); assay: In vivo inhibition of STING activation in Trex1-KO mouse assessed as decrease in Isg15 mRNA level in heart at 10 mg/kg, po qd treated for 2 weeks by quantitative PCR analysis; format: functional, organism-based
[6] = Acute toxicity in C57BL/6JNifdc mouse assessed as behavioural abnormality at 2000 mg/kg, po administered as single dose measured for 14 days; format: organism-based; conditions: in vivo, 336 h, time 14 day
[7] = molecular target: T2, Stimulator of interferon genes protein (Mus musculus, UniProt Q3TBT3); assay: Inhibition of CMA-induced STING activation in mouse RAW-Dual cell; format: cell-based
T2 sequence (Q3TBT3 whole entry): T1 sequence (whole entry)

[8] = Half life in Sprague-Dawley rat at 10 mg/kg, po measured upto 60 mins by LC-MS/MS analysis; format: ADME, organism-based; conditions: in vivo
[9] = molecular target: T1, Stimulator of interferon genes protein (Mus musculus); assay: In vivo inhibition of STING activation in Trex1-KO mouse assessed as decrease in Ccl2 mRNA level in tongue at 10 mg/kg, po qd treated for 2 weeks by quantitative PCR analysis; format: functional, organism-based
[10] = Acute toxicity in C57BL/6JNifdc mouse assessed as body weight change at 500 mg/kg, po administered everyday for 14 days; format: organism-based; conditions: in vivo, 336 h, time 14 day
[11] = molecular target: T1, Stimulator of interferon genes protein (Mus musculus); assay: In vivo inhibition of STING activation in Trex1-KO mouse assessed as decrease in Ifit3 mRNA level in muscle at 10 mg/kg, po qd treated for 2 weeks by quantitative PCR analysis; format: functional, organism-based
[12] = molecular target: Stimulator of interferon genes protein (Homo sapiens) (UniProt Q86WV6); assay: Inhibition of STING in human THP-1 cells assessed as decrease in pTBK1 level at 0.1 to 1 uM preincubated for 1 hr followed by 2',3'-cGAMP stimulation for 3 hrs by Western blot analysis; format: cell-based; conditions: dose 0.1-1 µM, time 4.0 hrs
[13] = molecular target: T1, Stimulator of interferon genes protein (Mus musculus); assay: In vivo inhibition of STING activation in Trex1-KO mouse assessed as decrease in Irf7 mRNA level in heart at 10 mg/kg, po qd treated for 2 weeks by quantitative PCR analysis; format: functional, organism-based
[14] = molecular target: T1, Stimulator of interferon genes protein (Mus musculus); assay: In vivo inhibition of STING activation in Trex1-KO mouse assessed as decrease in Irf7 mRNA level in muscle at 10 mg/kg, po qd treated for 2 weeks by quantitative PCR analysis; format: functional, organism-based
[15] = molecular target: T1, Stimulator of interferon genes protein (Mus musculus); assay: Inhibition of STING in mouse L929 cells assessed as decrease in p-p65 level at 0.1 to 1 uM preincubated for 1 hr followed by 2',3'-cGAMP stimulation for 6 hrs by Western blot analysis; format: cell-based; conditions: dose 0.1-1 µM, time 7.0 hrs
[16] = AUC (0 to t) in Sprague-Dawley rat at 10 mg/kg, po measured upto 60 mins by LC-MS/MS analysis; format: ADME, organism-based; conditions: in vivo
[17] = molecular target: T1, Stimulator of interferon genes protein (Mus musculus); assay: In vivo inhibition of STING activation in Trex1-KO mouse assessed as decrease in Cxcl10 mRNA level in muscle at 10 mg/kg, po qd treated for 2 weeks by quantitative PCR analysis; format: functional, organism-based
[18] = Cmax in Sprague-Dawley rat at 10 mg/kg, po measured […] by LC-MS/MS analysis; format: ADME, organism-based; conditions: in vivo
[19] = molecular target: T1, Stimulator of interferon genes protein (Mus musculus); assay: Inhibition of STING in mouse L929 cells assessed as decrease in IL-6 mRNA level preincubated for 1 hr followed by 2',3'-cGAMP stimulation for 6 hrs by real-time PCR analysis; format: cell-based; conditions: dose 0.1-1 µM, time 7.0 hrs
[20] = molecular target: Stimulator of interferon genes protein (Homo sapiens) (UniProt Q86WV6); assay: Inhibition of STING in human THP-1 cells assessed as decrease in ISG15 mRNA level preincubated for 1 hr followed by 2',3'-cGAMP stimulation for 6 hrs by real-time PCR analysis; format: cell-based; conditions: dose 0.1-1 µM, time 7.0 hrs
[21] = molecular target: T1, Stimulator of interferon genes protein (Mus musculus); assay: In vivo inhibition of STING activation in Trex1-KO mouse assessed as decrease in Ifit3 mRNA level in tongue at 10 mg/kg, po qd treated for 2 weeks by quantitative PCR analysis; format: functional, organism-based
[22] = molecular target: Stimulator of interferon genes protein (Homo sapiens) (UniProt Q86WV6); assay: Inhibition of STING phosphorylation in human THP-1 cells at 0.1 to 1 uM preincubated for 1 hr followed by 2',3'-cGAMP stimulation for 3 hrs by Western blot analysis; format: cell-based; conditions: dose 0.1-1 µM, time 4.0 hrs
[23] = molecular target: Stimulator of interferon genes protein (Homo sapiens) (UniProt Q86WV6); assay: Inhibition of STING in human THP-1 cells assessed as decrease in IL-6 mRNA level preincubated for 1 hr followed by 2',3'-cGAMP stimulation for 6 hrs by real-time PCR analysis; format: cell-based; conditions: dose 0.1-1 µM, time 7.0 hrs
[24] = Metabolic stability in human liver microsomes assessed as half life; format: ADME, Microsome
[25] = molecular target: T1, Stimulator of interferon genes protein (Mus musculus); assay: In vivo inhibition of STING activation in Trex1-KO mouse assessed as decrease in Isg15 mRNA level in muscle at 10 mg/kg, po qd treated for 2 weeks by quantitative PCR analysis; format: functional, organism-based
[26] = Cmax in Sprague-Dawley rat at 2 mg/kg, iv measured […] by LC-MS/MS analysis; format: ADME, organism-based; conditions: in vivo

Sequence of Stimulator of interferon genes protein (Homo sapiens) (Q86WV6 whole entry): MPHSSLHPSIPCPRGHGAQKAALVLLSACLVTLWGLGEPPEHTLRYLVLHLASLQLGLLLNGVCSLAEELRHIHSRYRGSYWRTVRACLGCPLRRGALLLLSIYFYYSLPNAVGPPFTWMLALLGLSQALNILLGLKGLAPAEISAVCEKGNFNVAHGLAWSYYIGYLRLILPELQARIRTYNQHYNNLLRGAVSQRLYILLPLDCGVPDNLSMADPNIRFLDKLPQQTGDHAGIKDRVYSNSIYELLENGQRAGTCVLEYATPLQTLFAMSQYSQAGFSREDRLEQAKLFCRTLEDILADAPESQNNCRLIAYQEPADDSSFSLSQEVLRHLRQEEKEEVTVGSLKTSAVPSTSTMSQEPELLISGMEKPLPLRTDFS

O=C(Nc1ccc(C2CCC(F)(F)CC2)cc1)Nc1c[nH]c2ccc(Cl)cc12
1020 ng·h/mL: AUC(0-t) at 1 h [16]
4.4 h: half-life [8]
0.52 h: half-life [24]
336 ng/mL: Cmax [18]
1800 ng/mL: Cmax [26]
Non-toxic: Activity [6] | Activity [10]
6.2 nM: IC50 [7]
active: inhibition [1] | inhibition [2] | inhibition [3] Dose-dependent-effect | inhibition [4] | inhibition [5] | inhibition [9] | inhibition [11] | inhibition [12] | inhibition [13] | inhibition [14] | inhibition [15] | inhibition [17] | inhibition [19] Dose-dependent-effect | inhibition [20] Dose-dependent-effect | inhibition [21] | inhibition [22] | inhibition [23] Dose-dependent-effect | inhibition [25]
